Data: patent US20250122222A1, “HETEROCYCLIC COMPOUNDS AND METHODS OF USE” (AMGEN INC., priority 2021, published 2025)

target: His-tagged KRAS G12D protein (Homo sapiens, UniProt P01116, G12D); assay: KRAS G12D TR-FRET assay (binding); conditions: biotinylated KRPep-2d substrate, GDP in assay buffer
Sequence (P01116 1-188 isoform P01116-2 G12D): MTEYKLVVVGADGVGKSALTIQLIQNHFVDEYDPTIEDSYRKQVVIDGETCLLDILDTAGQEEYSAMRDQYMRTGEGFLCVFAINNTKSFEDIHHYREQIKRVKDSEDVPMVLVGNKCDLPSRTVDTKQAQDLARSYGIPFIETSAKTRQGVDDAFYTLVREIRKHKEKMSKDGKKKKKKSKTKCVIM

Row | IC50 [µM] | SMILES
1 | 0.039 | CCc1c(F)ccc2cc(O)cc(-c3ncc4c(N5CC6COC(C5)C6O)nc(OC[C@@]56CCCN5C[C@H](F)C6)nc4c3F)c12 (relative stereo) [Example 11, 3-(7-(8-Ethyl-7-fluoro-3-hydroxynaphthalen-1-yl)-8-fluoro-2-(((2R,7aS)-2-fluorotetrahydro-1H-pyrrolizin-7a(5H)-yl)methoxy)pyrido [4,3-d]pyrimidin-4-yl)-6-oxa-3-azabicyclo[3.2.1] octan-8-ol]
2 | 0.017 | CCc1c(F)ccc2cc(O)cc(-c3ncc4c(N5CCOCC(C(N)=O)C5)nc(OC[C@@]56CCCN5C[C@H](F)C6)nc4c3F)c12 (single isomer, unassigned) [Example 46]
3 | 0.003 | CCc1c(F)ccc2cc(O)cc(-c3ncc4c(N5CCOCC(C(N)=O)C5)nc(OC[C@@]56CCCN5C[C@H](F)C6)nc4c3F)c12 (single isomer, unassigned) [Example 47]
4 | 0.006 | CCc1c(F)ccc2cc(O)cc(-c3ncc4c(N5CC6CC(C#N)C(C5)O6)nc(OC[C@@]56CCCN5C[C@H](F)C6)nc4c3F)c12 (single isomer, unassigned) [Example 72]
5 | 0.014 | CCc1c(F)ccc2cc(O)cc(-c3ncc4c(N5CC6COCC(C5)C6O)nc(OC[C@@]56CCCN5C[C@H](F)C6)nc4c3F)c12 (stereo partly drawn) [Example 58, 7-(7-(8-Ethyl-7-fluoro-3-hydroxy-naphthalen-1-yl)-8-fluoro-2-(((2R,7aS)-2-fluorotetrahydro-1H-pyrrolizin-7a(5H)-yl)meth-oxy)pyrido[4,3-d]pyrimidin-4-yl)-3-oxa-7-azabicyclo [3.3.1]nonan-9-ol]
6 | 0.015 | CCc1c(F)ccc2cc(O)cc(-c3ncc4c(N5CCOC(CO)C5)nc(OC[C@@]56CCCN5C[C@H](F)C6)nc4c3F)c12 (stereo partly drawn) [Example 60, 5-Ethyl-6-fluoro-4-(8-fluoro-2-(((2R, 7aS)-2-fluorotetra-hydro-1H-pyrrol-izin-7a(5H)-yl)-methoxy)-4-(2-(hydroxymethyl)-morpholino)pyrido [4,3-d]pyrimidin-7-yl)naphthalen-2-ol]
7 | 0.044 | CCc1c(F)ccc2cc(O)cc(-c3ncc4c(N5C[C@H]6CCC[C@@H](C5)O6)nc(OC[C@@]56CCCN5C[C@H](F)C6)nc4c3F)c12 [Example 64, 4-(4-((1R,5S)-9-oxa-3-azabicyclo [3.3.1]nonan-3-yl)-8-fluoro-2-(((2R, 7aS)-2-fluorotetra-hydro-1H-pyrrolizin-7a(5H)-yl)methoxy)-pyrido[4,3-d]pyrim-idin-7-yl)-5-ethyl-6-fluoronaphthalen-2-ol]

The remaining lines, values behind:

Row | SMILES | IC50 [µM]
8 | CCc1c(F)ccc2cc(O)cc(-c3ncc4c(N5CCCOC(C(=O)NC)C5)nc(OC[C@@]56CCCN5C[C@H](F)C6)nc4c3F)c12 (single isomer, unassigned) [Example 42] | 0.002
9 | CCc1c(F)ccc2cc(O)cc(-c3ncc4c(N5CCCOC(C(=O)NC)C5)nc(OC[C@@]56CCCN5C[C@H](F)C6)nc4c3F)c12 (single isomer, unassigned) [Example 43] | 0.249
10 | CCc1c(F)ccc2cc(O)cc(-c3ncc4c(N5CCOCC(C(=O)NC)C5)nc(OC[C@@]56CCCN5C[C@H](F)C6)nc4c3F)c12 (single isomer, unassigned) [Example 44] | 0.026
11 | CCc1c(F)ccc2cc(O)cc(-c3ncc4c(N5CCOCC(C(=O)NC)C5)nc(OC[C@@]56CCCN5C[C@H](F)C6)nc4c3F)c12 (single isomer, unassigned) [Example 45] | 0.002
12 | CCc1c(F)ccc2cc(O)cc(-c3ncc4c(N5CCCOC(CO)C5)nc(OC[C@@]56CCCN5C[C@H](F)C6)nc4c3F)c12 (single isomer, unassigned) [Example 48] | 0.01
13 | CCc1c(F)ccc2cc(O)cc(-c3ncc4c(N5CCCOCC5)nc(OCC5(C)CCC(=O)N5)nc4c3F)c12 (centres unmarked) [Example 30, 5-(((7-(8-ethyl-7-fluoro-3-hydroxynaphthalen-1-yl)-8-fluoro-4-(1,4-oxazepan-4-yl)pyrido[4,3-d]pyrimidin-2-yl)oxy)methyl)-5-methylpyrrolidin-2-one] | 0.037
14 | CCc1c(F)ccc2cc(O)cc(-c3ncc4c(N5CCCOCC5)nc(OCC5(C#N)CCNC5)nc4c3F)c12 (centres unmarked) [Example 31, 3-(((7-(8-ethyl-7-fluoro-3-hydroxynaphthalen-1-yl)-8-fluoro-4-(1,4-oxazepan-4-yl)pyrido[4,3-d]pyrimidin-2-yl)oxy)methyl) pyrrolidine-3-carbonitrile] | 0.011
15 | CCc1c(F)ccc2cc(O)cc(-c3ncc4c(N5CCCOCC5)nc(OCC5(C#N)CCN(C)C5)nc4c3F)c12 (centres unmarked) [Example 33, 3-(((7-(8-ethyl-7-fluoro-3-hydroxynaphthalen-1-yl)-8-fluoro-4-(1,4-oxazepan-4-yl)pyrido[4,3-d]pyrimidin-2-yl)oxy)methyl)-1-methylpyrrolidine-3-carbonitrile] | 0.027
16 | CCc1c(F)ccc2cc(O)cc(-c3ncc4c(N5CCSC(CO)C5)nc(OC[C@@]56CCCN5C[C@H](F)C6)nc4c3F)c12 (stereo partly drawn) [Example 40, 5-Ethyl-6-fluoro-4-(8-fluoro-2-(((2R,7aS)-2-fluorotetrahydro-1H-pyrrolizin-7a(5H)-yl)methoxy)-4-(2-(hydroxymethyl)thiomorpholino)pyrido[4,3-d]pyrimidin-7-yl)naphthalen-2-ol] | 0.006
17 | CCc1c(F)ccc2cc(O)cc(-c3ncc4c(N5CCOCC[C@H]5C)nc(OC[C@@]56CCCN5C[C@H](F)C6)nc4c3F)c12 [Example 54, 5-Ethyl-6-fluoro-4-(8-fluoro-2-(((2R,7aS)-2-fluorotetrahydro-1H-pyrrolizin-7a(5H)-yl)methoxy)-4-((R)-5-methyl-1,4-oxazepan-4-yl)pyrido[4,3-d]pyrimidin-7-yl)naphthalen-2-ol] | 0.007
18 | CCc1c(F)ccc2cc(O)cc(-c3ncc4c(N5CCOCC[C@@H]5C)nc(OC[C@@]56CCCN5C[C@H](F)C6)nc4c3F)c12 [Example 55, 5-Ethyl-6-fluoro-4-(8-fluoro-2-(((2R, 7aS)-2-fluorotetra-hydro-1H-pyrrol-izin-7a(5H)-yl)-methoxy)-4-((S)-5-methyl-1,4-oxazepan-4-yl)-pyrido[4,3-d]pyrimidin-7-yl)-naphthalen-2-ol] | 0.007
19 | CCc1c(F)ccc2cc(O)cc(-c3ncc4c(N5CCOC(CC#N)C5)nc(OC[C@@]56CCCN5C[C@H](F)C6)nc4c3F)c12 (stereo partly drawn) [Example 65, 2-(4-(7-(8-Ethyl-7-fluoro-3-hydroxy-naphthalen-1-yl)-8-fluoro-2-(((2R,7aS)-2-fluorotetrahydro-1H-pyrrolizin-7a(5H)-yl)methoxy)-pyrido[4,3-d]pyrim-idin-4-yl)morpholin-2-yl)acetonitrile] | 0.043
20 | CCc1c(F)ccc2cc(O)cc(-c3ncc4c(N5CCOC(C(F)F)C5)nc(OC[C@@]56CCCN5C[C@H](F)C6)nc4c3F)c12 (stereo partly drawn) [Example 75, 4-(4-(2-(Difluoromethyl)morpholino)-8-fluoro-2-(((2R,7aS)-2-fluorotetrahydro-1H-pyrrolizin-7a(5H)-yl)methoxy)pyrido[4,3-d]pyrimidin-7-yl)-5-ethyl-6-fluoronaphthalen-2-ol] | 0.052
21 | CCc1c(F)ccc2cc(O)cc(-c3ncc4c(N5CCCOCC5)nc(OCC5(CO)CC5)nc4c3F)c12 [Example 77, 5-Ethyl-6-fluoro-4-(8-fluoro-2-((1-(hydroxymethyl)cyclopropyl)methoxy)-4-(1,4-oxazepan-4-yl)pyrido[4,3-d]pyrimidin-7-yl)naphthalen-2-ol] | 0.041

system: Phosphorylation of ERK1/2 in AsPC-1 cells; assay: Phospho-ERK1/2 MSD assay; format: cell-based; conditions: Homo sapiens, ASPC1, read-out: 2 h p-ERK (AsPC-1 cells), IC50 (μM), 2 hours compound treatment
Protocol: Sixteen hours prior to compound treatment, AsPC-1 cells were seeded in 96-well cell culture plates at a density of 25,000 cells/well and incubated at 37° C., 5% CO2. A compound dose-response titration was diluted in growth media, added to appropriate wells of a cell culture plate, and then incubated at 37° C., 5% CO2 for 2 hours.

Row | IC50 [µM] | SMILES
22 | > 10 | CCc1c(F)ccc2cc(O)cc(-c3ncc4c(N5CC6COC(C5)C6O)nc(OC[C@@]56CCCN5C[C@H](F)C6)nc4c3F)c12 (relative stereo) [Example 11, 3-(7-(8-Ethyl-7-fluoro-3-hydroxynaphthalen-1-yl)-8-fluoro-2-(((2R,7aS)-2-fluorotetrahydro-1H-pyrrolizin-7a(5H)-yl)methoxy)pyrido [4,3-d]pyrimidin-4-yl)-6-oxa-3-azabicyclo[3.2.1] octan-8-ol]
23 | 1.47 | CCc1c(F)ccc2cc(O)cc(-c3ncc4c(N5CCOCC(C(N)=O)C5)nc(OC[C@@]56CCCN5C[C@H](F)C6)nc4c3F)c12 (single isomer, unassigned) [Example 47]
24 | 0.004 | CCc1c(F)ccc2cc(O)cc(-c3ncc4c(N5CCOCC(C)(O)C5)nc(OC[C@@]56CCCN5C[C@H](F)C6)nc4c3F)c12 (single isomer, unassigned) [Example 69]
25 | 0.308 | CCc1c(F)ccc2cc(O)cc(-c3ncc4c(N5CC6CC(C#N)C(C5)O6)nc(OC[C@@]56CCCN5C[C@H](F)C6)nc4c3F)c12 (single isomer, unassigned) [Example 72]
26 | 0.292 | CCc1c(F)ccc2cc(O)cc(-c3ncc4c(N5CCOC[C@@H](O)C5)nc(OC[C@@]56CCCN5C[C@H](F)C6)nc4c3F)c12 [Example 25, (S)-4-(7-(8-Ethyl-7-fluoro-3-hydroxynaphthalen-1-yl)-8-fluoro-2-(((2R,7aS)-2-fluorotetrahydro-1H-pyrrolizin-7a(5H)-yl)methoxy)pyrido [4,3-d]pyrimidin-4-yl)-1,4-oxazepan-6-ol]
27 | 2.27 | CCc1c(F)ccc2cc(O)cc(-c3ncc4c(N5CCOC[C@H](O)C5)nc(OC[C@@]56CCCN5C[C@H](F)C6)nc4c3F)c12 [Example 26, (R)-4-(7-(8-Ethyl-7-fluoro-3-hydroxynaphthalen-1-yl)-8-fluoro-2-(((2R,7aS)-2-fluorotetrahydro-1H-pyrrolizin-7a(5H)-yl)methoxy)pyrido [4,3-d]pyrimidin-4-yl)-1,4-oxazepan-6-ol]
28 | 0.035 | CCc1c(F)ccc2cc(O)cc(-c3ncc4c(N5CCCOCC5)nc(OC[C@]56CCCN5C[C@H](F)C6)nc4c3F)c12 [Example 41, 5-ethyl-6-fluoro-4-(8-fluoro-2-(((2R, 7aR)-2-fluorotetra-hydro-1H-pyrrol-izin-7a(5H)-yl)-methoxy)-4-(1,4-oxazepan-4-yl)pyr-ido[4,3-d]pyrimi-din-7-yl)naphtha-len-2-ol]
29 | 0.07 | CCc1c(F)ccc2cc(O)cc(-c3ncc4c(N5CCOC[C@@H](CO)C5)nc(OC[C@@]56CCCN5C[C@H](F)C6)nc4c3F)c12 [Example 50, 5-Ethyl-6-fluoro-4-(8-fluoro-2-(((2R, 7aS)-2-fluorotetra-hydro-1H-pyrrol-izin-7a(5H)-yl)-methoxy)-4-((R)-6-(hydroxymeth-yl)-1,4-oxazepan-4-yl)pyrido[4,3-d]pyrimidin-7-yl)-naphthalen-2-ol]

Second part, the compound before the results:

Row | SMILES | IC50 [µM]
30 | CCc1c(F)ccc2cc(O)cc(-c3ncc4c(N5CCOCC(C(=O)NC)C5)nc(OC[C@@]56CCCN5C[C@H](F)C6)nc4c3F)c12 (single isomer, unassigned) [Example 45] | 0.427
31 | CCc1c(F)ccc2cc(O)cc(-c3ncc4c(N5CCCOC(CO)C5)nc(OC[C@@]56CCCN5C[C@H](F)C6)nc4c3F)c12 (single isomer, unassigned) [Example 48] | 1.05
32 | Oc1cc(-c2ncc3c(N4CCCOCC4)nc(OC[C@@]45CCCN4C[C@H](F)C5)nc3c2F)c2ccccc2c1 [Example 14, 4-(8-Fluoro-2-(((2R,7aS)-2-fluorotetrahydro-1H-pyrrolizin-7a(5H)-yl)methoxy)-4-(1,4-oxazepan-4-yl)pyrido[4,3-d]pyrimidin-7-yl)naphthalen-2-ol] | 0.794
